Assay results taken from patent publication US8202902B2, “Bivalent SMAC mimetics and the uses thereof” (The Regents of the University of Michigan, priority 2006, dated 2012).
Like-named read-outs stand apart in the source and are kept apart here.

What was measured:
OVCAR-4 cells = assay: Trypan blue cell viability assay, OVCAR-4; assay type: cell-based; details: 100 nM, 2 days
Description: (§1) 0.3×10^6 cells were seeded in 6 well plates and incubated at 37° C. in an atmosphere of 95% air and 5% CO2 without or with tested compound for 2 days. A 1:1 dilution of 0.4% Trypan blue (Invitrogen Corporation) was used to determine cell viability.

MDA-MB-231 cells = assay: Trypan blue cell viability assay, MDA-MB-231; assay type: cell-based, human; details: 100 nM, 2 days
Description: as §1

[1] = system: SK-OV-3 ovarian cancer cell line; assay: Apoptosis assay (Annexin V/P.I.), SK-OV-3; assay type: cell-based; details: 1 nM for 12 h
Description: (§2) Analysis of apoptosis was performed using an apoptosis detection kit (BioVision Research Products, Mountain View, Calif.) according to the manufacturer's protocol. Briefly, cells were treated with Smac mimetics for 12 hours, harvested and washed with ice-cold PBS. Cells were stained with Annexin V-FITC and Propidium iodide (P.I.) for 15 minutes at room temperature in the dark and immediately analyzed by FACS calibur flow cytometer (Becton Dickinson, Erembodegem, Belgium). Cells that were stained Annexin V (+) and P.I. (−) were considered early-stage apoptotic cells. Cells that were stained annexin V (+) and P.I. (+) were considered late-stage apoptotic cells and cells that were stained annexin V (−) and P.I. (+) were considered necrotic cells (FIG. 6).
(§3) Treatment with SM-164 at 1 nM for 12 h induced 32%, 33%, and 37% of the MDA-MB-231, SK-OV-3 and MALME-3M cells to undergo apoptosis, respectively (FIGS. 12-14).

[2] = system: MDA-MB-231 breast cancer cell line; assay: Apoptosis assay (Annexin V/P.I.), MDA-MB-231; assay type: cell-based, human; details: 1 nM for 12 h
Description: as §2, §3

[3] = molecular target: T1, Recombinant XIAP containing linker-BIR2-BIR3 (residues 120-356) (Homo sapiens, UniProt P98170); assay: Cell-free functional assay: antagonism of XIAP inhibition of caspase-3/-7; assay type: biochemical
T1 construct: Recombinant XIAP containing linker-BIR2-BIR3 (residues 120-356)

[4] = system: Sensitive cancer cell lines; assay: Secreted TNFα in cell culture medium (ELISA), sensitive lines; assay type: cell-based
Description: (§4) To explore whether the resistance of cancer cells to Smac mimetics is due to the lack of secreted TNFα, the levels of secreted TNFα were examined. Secreted TNFα concentrations were determined in 200 μl of cell culture medium using the Quantikine HS Human TNFα ELISA kit (R&D Systems). The assay was performed according to the manufacturer's instructions.

[5] = system: MDA-MB-231, MALME-3M and SK-OV-3 cell lines; assay: Cell death induction with TNFα or TRAIL neutralizing antibody; assay type: cell-based
[6] = system: MDA-MB-231 human breast cancer cell line; assay: Cell growth inhibition, WST-8 assay, MDA-MB-231; assay type: cell-based
Description: (§5) The rate of cell growth inhibition after treatment with different concentrations of the compound was determined using a WST-8 kit (2-(2-methoxy-4-nitrophenyl)-3-(4-nitrophenyl)-5-(2, 4 disulfophenyl)-2H-tetrazolium monosodium salt; Dojindo Molecular Technologies, Inc., Gaithersburg, Md.). WST-8 was added at a final concentration of 10% to each well, and then the plates were incubated at 37° C. for 2-3 hrs. The absorbance of the samples was measured at 450 nm using a ULTRA Tecan Reader (Molecular Device).

[7] = molecular target: T2, XIAP protein containing both BIR2 and BIR3 domains (Homo sapiens, UniProt P98170); assay: Fluorescence-polarization based binding assay, XIAP BIR2-BIR3
T2 construct: XIAP protein containing both BIR2 and BIR3 domains; made in house

[8] = system: cIAP-1 in cancer cell lines; assay: Induction of cIAP-1 degradation in cancer cells; assay type: cell-based
cellular XIAP = cellular XIAP (Homo sapiens, UniProt P98170); details: cited from earlier work
[9] = system: MALME-3M melanoma cell line; assay: Apoptosis assay (Annexin V/P.I.), MALME-3M; assay type: cell-based; details: 1 nM for 12 h
Description: as §2, §3

[10] = system: resistant cancer cell lines (MDA-MB-453 breast, DU-145 prostate, MDA-MB-435 melanoma); assay: Secreted TNFα in cell culture medium (ELISA), resistant lines; assay type: cell-based
Description: as §4

SK-OV-3 = assay: Cell growth inhibition, WST assay, SK-OV-3; assay type: cell-based; details: Homo sapiens
Description: as §5, with “Cells were seeded in 96-well flat bottom cell culture plates at a density of 3000 cells/well with a tested compound and incubated at 37° C. in an atmosphere of 95% air and 5% CO2 for 4 days. The rate” for “The rate”

[11] = molecular target: cIAP-1 protein containing both BIR2 and BIR3 domains (Homo sapiens, UniProt Q13490); assay: Fluorescence-polarization based binding assay, cIAP-1 BIR2-BIR3
[12] = molecular target: T3, human XIAP protein (residues 120-356) (Homo sapiens, UniProt P98170); assay: Fluorescence-polarization-based binding assay to XIAP protein (Smac2-F tracer)
T3 construct: human XIAP protein (residues 120-356) (10 nM)
Description: The polarization values were measured after 2 hours incubation, using the Ultra plate reader. […] Curve fitting is performed using GraphPad Prism® software.

[13] = system: sensitive cancer cell lines (MDA-MB-231, MALME-3M, SK-OV-3); assay: XIAP knockdown by siRNA with exogenous TNFα, cell death; assay type: cell-based
Description: To investigate the role of XIAP in apoptosis induction by Smac mimetics, XIAP was knocked down in sensitive cancer cell lines. Because XIAP knockdown attenuated the production and secretion of TNFα (FIG. 34) (Gaither et al., Cancer Res. 67:11493 (2007)), exogenous TNFα was added in these XIAP knockdown experiments. […] For example, while SM-122 at 100 nM in combination with TNFα killed 25% of the MDA-MB-231 cells when control siRNA was used, the same combination killed 75% of the cells when XIAP was knocked down.
This is consistent with binding and functional data that indicates SM-164 binds to XIAP with a high affinity and is a potent antagonist of XIAP.

[14] = system: MDA-MB-231, SK-OV-3 and MALME-3M cell lines; assay: Western blot analysis of caspase processing and PARP cleavage; assay type: cell-based
Description: as §3

T3 sequence (P98170 120-356): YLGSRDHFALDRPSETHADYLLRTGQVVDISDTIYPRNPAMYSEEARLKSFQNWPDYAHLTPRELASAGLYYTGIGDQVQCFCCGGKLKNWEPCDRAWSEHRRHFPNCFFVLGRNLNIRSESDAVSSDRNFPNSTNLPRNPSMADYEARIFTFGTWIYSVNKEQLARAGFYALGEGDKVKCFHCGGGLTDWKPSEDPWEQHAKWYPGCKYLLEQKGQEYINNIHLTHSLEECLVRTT
cIAP-1 protein containing both BIR2 and BIR3 domains, sequence (Q13490 174-352 limits assumed): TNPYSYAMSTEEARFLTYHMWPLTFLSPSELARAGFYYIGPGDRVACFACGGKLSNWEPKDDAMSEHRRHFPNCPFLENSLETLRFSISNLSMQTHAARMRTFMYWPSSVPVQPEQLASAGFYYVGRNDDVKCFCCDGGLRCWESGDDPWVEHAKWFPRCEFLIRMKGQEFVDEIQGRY
T2 sequence (P98170 120-356 limits assumed): as the sequence (P98170 120-356) above
T1 sequence (P98170 120-356): as above
cellular XIAP, sequence (P98170 whole entry): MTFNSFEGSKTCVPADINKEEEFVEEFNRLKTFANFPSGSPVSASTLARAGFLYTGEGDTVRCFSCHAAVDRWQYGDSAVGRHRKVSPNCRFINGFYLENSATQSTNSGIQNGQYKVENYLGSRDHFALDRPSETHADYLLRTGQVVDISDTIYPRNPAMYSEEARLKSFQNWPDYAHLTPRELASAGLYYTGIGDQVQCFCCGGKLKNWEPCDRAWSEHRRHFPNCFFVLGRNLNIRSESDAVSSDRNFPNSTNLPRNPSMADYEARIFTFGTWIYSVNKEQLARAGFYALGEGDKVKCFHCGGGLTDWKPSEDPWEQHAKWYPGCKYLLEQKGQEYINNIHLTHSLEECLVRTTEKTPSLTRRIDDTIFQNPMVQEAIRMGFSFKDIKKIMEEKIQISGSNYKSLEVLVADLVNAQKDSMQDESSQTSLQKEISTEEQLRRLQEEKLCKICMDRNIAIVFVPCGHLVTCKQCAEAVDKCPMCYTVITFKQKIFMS

CN[C@@H](C)C(=O)N[C@H]1CCCC[C@H]2CC[C@@H](C(=O)N[C@@H](c3ccccc3)c3cn(CCCCc4ccc(CCCCn5cc([C@@H](NC(=O)[C@@H]6CC[C@@H]7CCCC[C@H](NC(=O)[C@H](C)NC)C(=O)N76)c6ccccc6)nn5)cc4)nn3)N2C1=O [SH-164]
cell death (OVCAR-4 cells): at least 70% | cell death (MDA-MB-231 cells): at least 70% | cells undergoing apoptosis [1]: 33% | cells undergoing apoptosis [2]: 32% | more potent than SM-122 in antagonizing XIAP and promoting caspase activity [3]: 60 times | secretion of TNFα [4]: further enhanced | cell death induction in presence of neutralizing antibodies [5]: effectively blocked by a TNFα, but not by a TRAIL, neutralizing antibody | IC50 ([6]; MDA-MB-231, 96 h, 4 days, WST-8, read-out: IC50 cell growth inhibition): 1.4 nM | IC50 ([6]; MDA-MB-231, read-out: IC50 values (nM) In WST-assay (MDA-MB-231)): < 10 nM | more potent than monovalent SM-122 for binding to XIAP [7]: 300 times | cIAP-1 level ([8]; 1 nM for 60 min, sensitive cancer cell lines): reduced cIAP-1 markedly | cIAP-1 degradation ([8]; 100 nM, SK-OV-3 cell line (FIG. 28)): rapid cIAP-1 degradation | cIAP-1 level / degradation ([8]; 10-100 nM, sensitive cancer cell lines): undetectable levels | levels of XIAP protein ([8]; MDA-MB-231 and SK-OV-3, 12-24 h time points): reduced | cIAP-1 degradation ([8]; resistant cancer cell lines): rapid cIAP-1 degradation | more potent than SM-122 in competing off a biotinylated Smac mimetic to cellular XIAP (cellular XIAP): > 100 times | cells undergoing apoptosis [9]: 37% | induction of TNFα [10]: failed to induce detectable levels of TNFα | IC50 (SK-OV-3): < 10 nM | Ki [11]: 0.31 nM | more potent than SM-122 to cIAP-1 [11]: 9 times | binding affinity better than the monovalent Smac mimetic SH-122 [12]: more than 500 fold | more potent than the natural Smac peptide AVPI [12]: > 5000 times | cell death induction ([13]; 3 and 10 nM, with or without TNFα): effectively induced cell death | sensitization by knockdown of XIAP ([13]; presence of exogenous TNFα): only modestly sensitized | induction of cell death, caspase processing and PARP cleavage, comparison ([14]; SM-164 at 1 nM): as effective as SM-122 at 1,000 nM | levels of pro-caspase-3, -8 and -9 (cleaved PARP increased) ([14]; concentration as low as 1 nM): markedly decreased
